Experimental data as given in ChEMBL document CHEMBL4507293 (2021).

How the values were obtained:
[1] = target: cGMP-inhibited 3',5'-cyclic phosphodiesterase 3A (Homo sapiens, UniProt Q14432); test: Biochemical assay (PDE3A)
[2] = target: AP2-associated protein kinase 1 (Homo sapiens) (UniProt Q2M2I8); details: Compound concentration 100.0 nM
[3] = test system: Tyrosine-protein kinase ABL1 (Homo sapiens), P00519 [M351T]; details: Compound concentration 100.0 nM
[4] = target: Activin receptor type-2B (Homo sapiens) (UniProt Q13705); details: Compound concentration 100.0 nM
[5] = target: RAC-beta serine/threonine-protein kinase (Homo sapiens) (UniProt P31751); details: Compound concentration 100.0 nM
[6] = target: Calcium/calmodulin-dependent protein kinase type 1B (Homo sapiens) (UniProt Q6P2M8); details: Compound concentration 100.0 nM
[7] = target: Serine/threonine-protein kinase DCLK1 (Homo sapiens) (UniProt O15075); details: Compound concentration 100.0 nM
[8] = target: Serine/threonine-protein kinase DCLK2 (Homo sapiens) (UniProt Q8N568); details: Compound concentration 100.0 nM
[9] = target: Myotonin-protein kinase (Homo sapiens) (UniProt Q09013); details: Compound concentration 100.0 nM
[10] = target: Serine/threonine-protein kinase 17A (Homo sapiens) (UniProt Q9UEE5); details: Compound concentration 100.0 nM
[11] = target: Dual specificity tyrosine-phosphorylation-regulated kinase 1B (Homo sapiens) (UniProt Q9Y463); details: Compound concentration 100.0 nM
[12] = test system: Epidermal growth factor receptor (Homo sapiens), P00533 [L861Q]; details: Compound concentration 100.0 nM
[13] = target: Ephrin type-A receptor 1 (Homo sapiens) (UniProt P21709); details: Compound concentration 100.0 nM
[14] = target: Ephrin type-B receptor 4 (Homo sapiens) (UniProt P54760); details: Compound concentration 100.0 nM
[15] = target: Tyrosine-protein kinase Fes/Fps (Homo sapiens) (UniProt P07332); details: Compound concentration 100.0 nM
[16] = target: Vascular endothelial growth factor receptor 3 (Homo sapiens) (UniProt P35916); details: Compound concentration 100.0 nM
[17] = target: Inhibitor of nuclear factor kappa-B kinase subunit alpha (Homo sapiens) (UniProt O15111); details: Compound concentration 100.0 nM
[18] = target: Tyrosine-protein kinase ITK/TSK (Homo sapiens) (UniProt Q08881); details: Compound concentration 100.0 nM
[19] = test system: Mast/stem cell growth factor receptor Kit (Homo sapiens), P10721 [V559D,T670I]; details: Compound concentration 100.0 nM
[20] = target: Tyrosine-protein kinase Lck (Homo sapiens) (UniProt P06239); details: Compound concentration 100.0 nM
[21] = target: Serine/threonine-protein kinase 10 (Homo sapiens) (UniProt O94804); details: Compound concentration 100.0 nM
[22] = target: Mitogen-activated protein kinase kinase kinase 11 (Homo sapiens) (UniProt Q16584); details: Compound concentration 100.0 nM
[23] = target: Serine/threonine-protein kinase 4 (Homo sapiens) (UniProt Q13043); details: Compound concentration 100.0 nM
[24] = target: Serine/threonine-protein kinase 3 (Homo sapiens) (UniProt Q13188); details: Compound concentration 100.0 nM
[25] = target: Myosin light chain kinase, smooth muscle (Homo sapiens) (UniProt Q15746); details: Compound concentration 100.0 nM
[26] = test system: Phosphatidylinositol 4,5-bisphosphate 3-kinase catalytic subunit alpha isoform (Homo sapiens), P42336 [E545A]; details: Compound concentration 100.0 nM
[27] = target: Serine/threonine-protein kinase RIO1 (Homo sapiens) (UniProt Q9BRS2); details: Compound concentration 100.0 nM
[28] = target: Ribosomal protein S6 kinase alpha-4 (Homo sapiens) (UniProt O75676); details: Compound concentration 100.0 nM
[29] = target: Ribosomal protein S6 kinase alpha-5 (Homo sapiens) (UniProt O75582); details: Compound concentration 100.0 nM
[30] = target: Ribosomal protein S6 kinase beta-1 (Homo sapiens) (UniProt P23443); details: Compound concentration 100.0 nM
[31] = target: Serine/threonine-protein kinase 16 (Homo sapiens) (UniProt O75716); details: Compound concentration 100.0 nM
[32] = target: TGF-beta receptor type-1 (Homo sapiens) (UniProt P36897); details: Compound concentration 100.0 nM
[33] = target: Testis-specific serine/threonine-protein kinase 3 (Homo sapiens) (UniProt Q96PN8); details: Compound concentration 100.0 nM
[34] = target: Tyrosine-protein kinase receptor TYRO3 (Homo sapiens) (UniProt Q06418); details: Compound concentration 100.0 nM
[35] = target: Vascular endothelial growth factor receptor 2 (Homo sapiens) (UniProt P35968); details: Compound concentration 100.0 nM
[36] = target: Phosphatidylinositol 3-kinase catalytic subunit type 3 (Homo sapiens) (UniProt Q8NEB9); details: Compound concentration 100.0 nM
[37] = target: Serine/threonine-protein kinase WNK3 (Homo sapiens) (UniProt Q9BYP7); details: Compound concentration 100.0 nM
[38] = target: T1, 5-hydroxytryptamine receptor 2C (Homo sapiens) (UniProt P28335); details: Compound concentration 10.0 uM
T1 sequence (whole entry): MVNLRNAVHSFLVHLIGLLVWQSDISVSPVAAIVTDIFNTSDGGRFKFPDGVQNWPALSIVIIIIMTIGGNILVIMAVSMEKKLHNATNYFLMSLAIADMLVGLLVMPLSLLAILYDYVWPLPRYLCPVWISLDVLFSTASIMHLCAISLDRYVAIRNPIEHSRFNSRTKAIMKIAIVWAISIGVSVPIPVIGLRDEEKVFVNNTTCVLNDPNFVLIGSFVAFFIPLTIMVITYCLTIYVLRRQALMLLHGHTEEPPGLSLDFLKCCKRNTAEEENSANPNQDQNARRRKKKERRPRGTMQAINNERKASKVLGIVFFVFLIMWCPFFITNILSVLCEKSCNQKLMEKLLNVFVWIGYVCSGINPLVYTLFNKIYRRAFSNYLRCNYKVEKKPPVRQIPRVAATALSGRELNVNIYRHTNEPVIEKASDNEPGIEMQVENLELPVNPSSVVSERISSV

[39] = target: Histamine H1 receptor (Homo sapiens) (UniProt P35367); details: Compound concentration 10.0 uM

Sequence of Phosphatidylinositol 4,5-bisphosphate 3-kinase catalytic subunit alpha isoform (Homo sapiens), P42336 [E545A] (P42336 whole entry E545A, canonical isoform): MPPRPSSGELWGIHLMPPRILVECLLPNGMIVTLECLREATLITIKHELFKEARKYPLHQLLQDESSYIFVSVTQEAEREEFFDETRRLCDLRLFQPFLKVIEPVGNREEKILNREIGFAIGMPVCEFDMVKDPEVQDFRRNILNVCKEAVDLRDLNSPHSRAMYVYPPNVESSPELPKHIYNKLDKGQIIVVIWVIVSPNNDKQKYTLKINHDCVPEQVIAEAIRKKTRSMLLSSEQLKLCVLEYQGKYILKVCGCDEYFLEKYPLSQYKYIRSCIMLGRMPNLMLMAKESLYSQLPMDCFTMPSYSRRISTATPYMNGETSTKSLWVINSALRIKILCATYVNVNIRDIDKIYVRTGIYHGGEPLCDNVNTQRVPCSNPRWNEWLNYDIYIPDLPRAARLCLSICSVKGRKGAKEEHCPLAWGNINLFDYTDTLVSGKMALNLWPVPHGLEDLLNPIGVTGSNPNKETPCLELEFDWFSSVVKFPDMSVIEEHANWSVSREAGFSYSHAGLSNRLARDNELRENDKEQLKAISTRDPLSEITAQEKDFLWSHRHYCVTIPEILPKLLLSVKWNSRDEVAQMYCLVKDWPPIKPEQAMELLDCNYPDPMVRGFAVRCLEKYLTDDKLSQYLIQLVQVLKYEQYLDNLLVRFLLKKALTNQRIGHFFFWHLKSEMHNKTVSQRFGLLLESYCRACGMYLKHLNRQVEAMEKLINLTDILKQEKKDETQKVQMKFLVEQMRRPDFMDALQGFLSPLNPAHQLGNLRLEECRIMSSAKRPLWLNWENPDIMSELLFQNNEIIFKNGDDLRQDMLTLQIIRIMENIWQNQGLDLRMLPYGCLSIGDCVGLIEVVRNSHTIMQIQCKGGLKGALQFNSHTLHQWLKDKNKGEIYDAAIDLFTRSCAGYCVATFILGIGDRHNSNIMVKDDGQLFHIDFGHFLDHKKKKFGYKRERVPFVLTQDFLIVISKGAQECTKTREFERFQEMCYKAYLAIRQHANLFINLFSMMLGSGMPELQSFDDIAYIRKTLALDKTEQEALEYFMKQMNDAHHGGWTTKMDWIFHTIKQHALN
Sequence of Ribosomal protein S6 kinase alpha-5 (Homo sapiens) (O75582 whole entry, looked up): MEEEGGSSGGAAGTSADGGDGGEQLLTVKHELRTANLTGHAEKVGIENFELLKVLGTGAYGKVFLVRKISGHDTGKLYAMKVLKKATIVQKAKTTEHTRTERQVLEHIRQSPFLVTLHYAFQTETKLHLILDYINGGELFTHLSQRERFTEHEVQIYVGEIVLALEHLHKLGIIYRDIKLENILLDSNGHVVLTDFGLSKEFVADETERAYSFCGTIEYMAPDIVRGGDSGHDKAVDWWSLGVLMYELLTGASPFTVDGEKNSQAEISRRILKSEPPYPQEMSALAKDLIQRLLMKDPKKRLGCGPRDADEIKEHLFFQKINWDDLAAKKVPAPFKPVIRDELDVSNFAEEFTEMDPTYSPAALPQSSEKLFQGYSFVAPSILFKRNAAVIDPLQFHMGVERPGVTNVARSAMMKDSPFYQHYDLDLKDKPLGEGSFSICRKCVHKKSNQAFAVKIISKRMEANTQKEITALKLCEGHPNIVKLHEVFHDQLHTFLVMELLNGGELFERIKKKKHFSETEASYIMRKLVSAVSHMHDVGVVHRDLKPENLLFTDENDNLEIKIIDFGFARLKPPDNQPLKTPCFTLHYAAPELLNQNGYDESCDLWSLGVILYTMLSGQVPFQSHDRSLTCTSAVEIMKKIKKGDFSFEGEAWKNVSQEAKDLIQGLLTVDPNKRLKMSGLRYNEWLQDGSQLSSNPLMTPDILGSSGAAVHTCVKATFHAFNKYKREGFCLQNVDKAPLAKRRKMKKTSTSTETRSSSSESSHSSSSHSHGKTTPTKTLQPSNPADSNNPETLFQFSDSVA
Sequence of Serine/threonine-protein kinase 17A (Homo sapiens) (Q9UEE5 whole entry): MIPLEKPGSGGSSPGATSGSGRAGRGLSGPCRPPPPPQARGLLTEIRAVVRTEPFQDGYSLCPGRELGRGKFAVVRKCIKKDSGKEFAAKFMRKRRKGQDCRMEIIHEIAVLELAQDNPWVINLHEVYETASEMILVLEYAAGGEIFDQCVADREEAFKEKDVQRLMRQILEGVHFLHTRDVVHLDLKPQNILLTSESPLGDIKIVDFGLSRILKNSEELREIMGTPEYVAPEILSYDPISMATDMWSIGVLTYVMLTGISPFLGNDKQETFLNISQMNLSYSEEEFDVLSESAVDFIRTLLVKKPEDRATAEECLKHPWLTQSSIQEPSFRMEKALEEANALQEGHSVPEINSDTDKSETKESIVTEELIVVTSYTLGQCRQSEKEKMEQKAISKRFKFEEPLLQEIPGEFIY
Sequence of Serine/threonine-protein kinase 4 (Homo sapiens) (Q13043 whole entry): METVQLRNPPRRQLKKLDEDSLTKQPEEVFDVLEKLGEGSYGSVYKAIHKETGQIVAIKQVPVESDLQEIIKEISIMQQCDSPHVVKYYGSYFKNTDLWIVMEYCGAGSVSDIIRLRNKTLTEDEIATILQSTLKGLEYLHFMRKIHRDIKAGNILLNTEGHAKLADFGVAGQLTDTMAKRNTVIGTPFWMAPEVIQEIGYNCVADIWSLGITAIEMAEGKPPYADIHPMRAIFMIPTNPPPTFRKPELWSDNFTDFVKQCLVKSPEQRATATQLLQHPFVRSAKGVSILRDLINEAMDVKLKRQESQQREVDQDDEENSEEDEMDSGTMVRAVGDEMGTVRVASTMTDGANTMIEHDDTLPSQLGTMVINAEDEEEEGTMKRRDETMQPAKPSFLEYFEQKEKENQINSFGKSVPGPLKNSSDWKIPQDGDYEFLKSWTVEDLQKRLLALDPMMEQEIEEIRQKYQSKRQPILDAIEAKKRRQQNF
Sequence of Tyrosine-protein kinase Lck (Homo sapiens) (P06239 2-509 limits assumed): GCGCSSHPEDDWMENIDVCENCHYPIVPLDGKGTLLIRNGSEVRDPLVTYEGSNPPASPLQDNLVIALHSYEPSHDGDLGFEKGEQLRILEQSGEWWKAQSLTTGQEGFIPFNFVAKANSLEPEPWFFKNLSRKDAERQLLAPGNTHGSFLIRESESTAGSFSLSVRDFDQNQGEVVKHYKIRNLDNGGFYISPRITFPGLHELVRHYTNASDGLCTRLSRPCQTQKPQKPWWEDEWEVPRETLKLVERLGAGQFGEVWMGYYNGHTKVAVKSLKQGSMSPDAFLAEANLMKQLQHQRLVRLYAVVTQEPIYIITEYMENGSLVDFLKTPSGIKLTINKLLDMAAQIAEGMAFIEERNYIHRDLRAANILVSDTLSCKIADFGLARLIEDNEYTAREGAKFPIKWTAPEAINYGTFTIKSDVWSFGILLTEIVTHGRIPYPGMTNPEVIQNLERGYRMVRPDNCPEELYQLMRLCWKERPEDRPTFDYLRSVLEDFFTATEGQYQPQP
Sequence of Ephrin type-A receptor 1 (Homo sapiens) (P21709 whole entry): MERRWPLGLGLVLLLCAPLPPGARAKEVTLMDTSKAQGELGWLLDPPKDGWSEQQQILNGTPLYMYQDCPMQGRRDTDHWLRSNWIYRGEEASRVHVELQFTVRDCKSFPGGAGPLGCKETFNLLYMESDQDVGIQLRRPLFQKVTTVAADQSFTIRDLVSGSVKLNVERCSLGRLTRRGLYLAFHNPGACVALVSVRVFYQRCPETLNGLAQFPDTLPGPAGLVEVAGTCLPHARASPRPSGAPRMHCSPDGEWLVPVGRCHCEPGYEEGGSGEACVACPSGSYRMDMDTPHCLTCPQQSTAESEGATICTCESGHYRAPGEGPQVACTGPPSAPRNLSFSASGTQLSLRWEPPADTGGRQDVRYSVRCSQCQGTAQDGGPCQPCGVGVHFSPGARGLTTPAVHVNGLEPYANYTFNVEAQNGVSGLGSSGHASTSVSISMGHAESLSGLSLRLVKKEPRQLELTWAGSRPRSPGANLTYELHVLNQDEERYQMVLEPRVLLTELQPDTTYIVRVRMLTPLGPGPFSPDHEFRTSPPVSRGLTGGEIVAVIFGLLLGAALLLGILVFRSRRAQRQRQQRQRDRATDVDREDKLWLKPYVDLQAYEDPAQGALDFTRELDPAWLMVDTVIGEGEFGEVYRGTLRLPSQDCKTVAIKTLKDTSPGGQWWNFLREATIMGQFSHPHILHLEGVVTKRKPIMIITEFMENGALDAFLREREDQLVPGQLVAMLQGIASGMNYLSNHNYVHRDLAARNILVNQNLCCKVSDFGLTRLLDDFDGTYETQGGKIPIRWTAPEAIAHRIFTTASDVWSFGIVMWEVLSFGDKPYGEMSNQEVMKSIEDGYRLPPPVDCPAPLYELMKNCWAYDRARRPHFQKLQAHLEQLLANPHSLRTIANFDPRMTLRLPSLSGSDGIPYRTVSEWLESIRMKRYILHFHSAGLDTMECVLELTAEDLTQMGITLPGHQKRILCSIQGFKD
Sequence of Testis-specific serine/threonine-protein kinase 3 (Homo sapiens) (Q96PN8 whole entry): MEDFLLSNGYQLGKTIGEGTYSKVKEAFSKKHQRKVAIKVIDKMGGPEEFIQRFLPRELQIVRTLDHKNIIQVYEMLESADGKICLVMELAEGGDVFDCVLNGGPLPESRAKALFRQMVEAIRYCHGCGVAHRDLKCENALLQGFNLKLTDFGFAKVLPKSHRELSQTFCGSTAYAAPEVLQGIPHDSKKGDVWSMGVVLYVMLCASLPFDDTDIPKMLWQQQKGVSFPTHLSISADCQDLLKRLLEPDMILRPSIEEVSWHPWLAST
Sequence of RAC-beta serine/threonine-protein kinase (Homo sapiens) (P31751 whole entry): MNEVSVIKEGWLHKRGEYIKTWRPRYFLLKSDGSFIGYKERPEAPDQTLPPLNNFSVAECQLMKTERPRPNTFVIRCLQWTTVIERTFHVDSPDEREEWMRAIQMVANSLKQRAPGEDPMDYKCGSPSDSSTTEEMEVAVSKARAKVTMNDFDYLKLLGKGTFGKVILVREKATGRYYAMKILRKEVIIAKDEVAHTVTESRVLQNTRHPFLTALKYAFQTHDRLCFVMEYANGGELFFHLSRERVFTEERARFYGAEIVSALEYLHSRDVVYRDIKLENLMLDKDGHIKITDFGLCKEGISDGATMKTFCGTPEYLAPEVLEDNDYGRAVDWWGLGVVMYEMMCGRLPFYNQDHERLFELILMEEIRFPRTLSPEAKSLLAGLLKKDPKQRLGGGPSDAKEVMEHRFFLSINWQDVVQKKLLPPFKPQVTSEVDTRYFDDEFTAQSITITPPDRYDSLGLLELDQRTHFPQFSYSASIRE

## COCCOc1nc(-c2ccc(Cl)nc2)nc2c1CN(C(=O)c1ncn3ccccc13)CC2 [THPP-1]
[1]
  Ki: 3.3 µM (not active)
[2]
  residual activity: 100%
[3]
  residual activity: 100%
[4]
  residual activity: 93%
[5]
  residual activity: 100%
[6]
  residual activity: 100%
[7]
  residual activity: 100%
[8]
  residual activity: 100%
[9]
  residual activity: 72%
[10]
  residual activity: 79%
[11]
  residual activity: 83%
[12]
  residual activity: 99%
[13]
  residual activity: 100%
[14]
  residual activity: 100%
[15]
  residual activity: 100%
[16]
  residual activity: 88%
[17]
  residual activity: 100%
[18]
  residual activity: 100%
[19]
  residual activity: 100%
[20]
  residual activity: 100%
[21]
  residual activity: 100%
[22]
  residual activity: 100%
[23]
  residual activity: 100%
[24]
  residual activity: 100%
[25]
  residual activity: 70%
[26]
  residual activity: 100%
[27]
  residual activity: 93%
[28]
  residual activity: 86%
[29]
  residual activity: 100%
[30]
  residual activity: 100%
[31]
  residual activity: 100%
[32]
  residual activity: 100%
[33]
  residual activity: 100%
[34]
  residual activity: 100%
[35]
  residual activity: 100%
[36]
  residual activity: 100%
[37]
  residual activity: 100%
[38]
  inhibition: 13.3%
[39]
  inhibition: 23.9%

## CC(C)CC(=O)N1CCc2nc(-c3ccc(Br)cc3)nc(N(C)Cc3ccccc3)c2C1 [THPP-1-NC]
[1]
  Ki: > 50 µM (not active)
[2]
  residual activity: 100%
[3]
  residual activity: 100%
[4]
  residual activity: 100%
[5]
  residual activity: 100%
[6]
  residual activity: 100%
[7]
  residual activity: 100%
[8]
  residual activity: 100%
[9]
  residual activity: 87%
[10]
  residual activity: 96%
[11]
  residual activity: 77%
[12]
  residual activity: 100%
[13]
  residual activity: 100%
[14]
  residual activity: 100%
[15]
  residual activity: 100%
[16]
  residual activity: 100%
[17]
  residual activity: 100%
[18]
  residual activity: 100%
[19]
  residual activity: 95%
[20]
  residual activity: 100%
[21]
  residual activity: 100%
[22]
  residual activity: 100%
[23]
  residual activity: 100%
[24]
  residual activity: 100%
[25]
  residual activity: 86%
[26]
  residual activity: 100%
[27]
  residual activity: 98%
[28]
  residual activity: 74%
[29]
  residual activity: 96%
[30]
  residual activity: 100%
[31]
  residual activity: 100%
[32]
  residual activity: 100%
[33]
  residual activity: 100%
[34]
  residual activity: 100%
[35]
  residual activity: 100%
[36]
  residual activity: 100%
[37]
  residual activity: 100%
[38]
  inhibition: -6.28%
[39]
  inhibition: 12.6%
